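Five compound concentrations were applied to cells in 96-well plates for 48 hours; endpoints were derived by simple linear interpolation of the resulting dose-response curve. GI50 is the concentration that inhibits growth by half.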 Active and inactive are the calls of the source. Cut-off read from the data, not from the text of the source: active = GI50 up to about 1.1 µM and inactive = higher.

Test systems include A498; TK-10; MDA-MB-435; Malme-3M; SK-MEL-5; SNB-75; SK-MEL-28; OVCAR-3; SNB-19; UACC-257; IGROV-1; M14; HOP-92; ACHN; SN12C; EKVX; CCRF-CEM; SK-OV-3; NCI-H522; A549.
Holding throughout (assay): growth of human tumour cells (NCI), 48 h

Consider `OCc1cc2c([nH]c3ccccc32)c(C(O)CO)n1` (stereo not given), for which the GI50 in the assay with A498, with TK-10, in the assay on MDA-MB-435, in the assay with Malme-3M, in the assay on SK-MEL-5 and in the assay on SNB-75 was > 100 µM (inactive) each time. The GI50 in the assay with SK-MEL-28, in the assay with OVCAR-3, with SNB-19, in the assay on UACC-257, in the assay on IGROV-1 and in the assay with M14 was > 100 µM (inactive) throughout. In addition, the GI50 in the assay with HOP-92, with ACHN, with SN12C, in the assay with EKVX, in the assay with CCRF-CEM and with SK-OV-3 was > 100 µM (inactive) each time. In addition, the GI50 in the assay on NCI-H522 and in the assay with A549 was > 100 µM (inactive) each time.

In the case of `O=C(Nc1ccc(Cl)cc1)c1cc(S(=O)(=O)Nc2n[nH]c(=O)[nH]2)c(SSc2cc(Cl)c(C(=O)Nc3ccc(Cl)cc3)cc2S(=O)(=O)Nc2n[nH]c(=O)[nH]2)cc1Cl`, the GI50 in the assay with A498 was > 100 µM (inactive); in the assay on TK-10, > 100 µM (inactive); in the assay on MDA-MB-435 it was > 100 µM (inactive); in the assay with Malme-3M it was > 100 µM (inactive); in the assay on SK-MEL-5, > 100 µM (inactive); in the assay with SNB-75, 88.1 µM (inactive). The GI50 in the assay with SK-MEL-28, with OVCAR-3, in the assay on SNB-19, in the assay on UACC-257, in the assay with IGROV-1 and in the assay on M14 was > 100 µM (inactive) in each case. Besides, the GI50 in the assay on HOP-92, in the assay with ACHN, in the assay on SN12C, with EKVX, with CCRF-CEM and in the assay on SK-OV-3 was > 100 µM (inactive) each time. Moreover, the GI50 with NCI-H522 and in the assay with A549 was > 100 µM (inactive) throughout.

In the case of `Cc1nc2cc(/N=N/c3c(O)ccc4ccccc34)ccc2[nH]1`, the GI50 is > 55 µM (inactive) in the assay with A498; > 76.2 µM (inactive) in the assay with TK-10; 23.1 µM (inactive) in the assay on MDA-MB-435; > 51.2 µM (inactive) in the assay with Malme-3M; 31.9 µM (inactive) in the assay with SK-MEL-5; > 72.1 µM (inactive) in the assay with SNB-75. In addition, the GI50 in the assay with SK-MEL-28 was 98.6 µM (inactive); in the assay with OVCAR-3, 25.2 µM (inactive); with SNB-19, > 96.4 µM (inactive); with UACC-257, 24.8 µM (inactive); in the assay on IGROV-1 it was > 45.3 µM (inactive); in the assay on M14 it was 38.4 µM (inactive). In addition, the GI50 was 24 µM (inactive) in the assay with HOP-92; 32.3 µM (inactive) in the assay with ACHN; 36.9 µM (inactive) in the assay with SN12C; > 49.9 µM (inactive) in the assay with EKVX; 16.1 µM (inactive) with CCRF-CEM; > 100 µM (inactive) in the assay with SK-OV-3. The GI50 in the assay on NCI-H522 is 22.8 µM (inactive); in the assay on A549 it was 44.5 µM (inactive).

Turning to `CCOc1ccc2nc3cc(/N=N/c4ccc(N)nc4N)ccc3c(N)c2c1`, the GI50 with A498 was 8.89 µM (inactive); in the assay on TK-10, 13.9 µM (inactive); in the assay on MDA-MB-435, 3.03 µM (inactive); in the assay on Malme-3M it was 4.45 µM (inactive); in the assay with SK-MEL-5 it was 17.3 µM (inactive); with SNB-75, 1.41 µM (inactive). The GI50 in the assay on SK-MEL-28 was 15.6 µM (inactive); in the assay on OVCAR-3, 1.53 µM (inactive); in the assay with SNB-19, 1.67 µM (inactive); in the assay on UACC-257, 19.1 µM (inactive); with IGROV-1 it was 23.6 µM (inactive); with M14, 20 µM (inactive). Also, the GI50 was 9.06 µM (inactive) in the assay on HOP-92; 18.2 µM (inactive) in the assay with ACHN; 2.17 µM (inactive) with SN12C; 7.96 µM (inactive) in the assay with EKVX; 0.136 µM (active) in the assay on CCRF-CEM; 7 µM (inactive) in the assay on SK-OV-3. Also, the GI50 was 2.99 µM (inactive) with NCI-H522 and 15 µM (inactive) in the assay on A549.

For the compound `COC(=O)C(=O)C(C(=O)C(=O)Nc1cccc(OC)c1)c1nc2ccc(Cl)cc2nc1O` (stereo not given), the GI50 in the assay on A498 is > 100 µM (inactive); with TK-10 it was > 100 µM (inactive); in the assay on MDA-MB-435 it was 83.6 µM (inactive); in the assay with Malme-3M, > 100 µM (inactive); with SK-MEL-5, > 100 µM (inactive); with SNB-75, > 100 µM (inactive). Also, the GI50 in the assay on SK-MEL-28, in the assay with OVCAR-3, with SNB-19, in the assay on UACC-257, in the assay on IGROV-1 and with M14 was > 100 µM (inactive) each time. The GI50 in the assay on HOP-92 is 74.5 µM (inactive); in the assay on ACHN, > 100 µM (inactive); in the assay on SN12C it was > 100 µM (inactive); with EKVX it was 27.6 µM (inactive); in the assay on CCRF-CEM, 12.9 µM (inactive); in the assay with SK-OV-3 it was > 100 µM (inactive). The GI50 in the assay with NCI-H522 and with A549 was > 100 µM (inactive) throughout.

Regarding `O=[N+]([O-])C(=C(NCc1ccccc1)NCc1ccccc1)C(Cl)=C(Cl)Cl`, the GI50 was 61.7 µM (inactive) in the assay with A498; 35.9 µM (inactive) in the assay on TK-10; 22.9 µM (inactive) in the assay on MDA-MB-435; 19 µM (inactive) in the assay with Malme-3M; 20.2 µM (inactive) with SK-MEL-5; 2.1 µM (inactive) in the assay on SNB-75. For the same compound, the GI50 with SK-MEL-28 is 61.2 µM (inactive); with OVCAR-3, 21.6 µM (inactive); with SNB-19, 28.2 µM (inactive); in the assay with UACC-257, 38.1 µM (inactive); in the assay with IGROV-1 it was 34 µM (inactive); in the assay with M14, 26 µM (inactive). In addition, the GI50 in the assay on HOP-92 was 37.3 µM (inactive); in the assay on ACHN it was 21.6 µM (inactive); with SN12C it was 34.9 µM (inactive); in the assay on EKVX, 51.3 µM (inactive); in the assay on CCRF-CEM, 23.1 µM (inactive); in the assay on SK-OV-3, 51.1 µM (inactive). Further, the results for the GI50 in the assay on NCI-H522 and with A549 were 37 µM (inactive) and 42.7 µM (inactive), respectively.

Take `CCCCCCCCCCCCCCCCOCC(Cl)CP(=O)(O)OP(=O)(O)OCC1OC(n2cnc3c(N)ncnc32)C(O)C1O` (stereo not given): the GI50 in the assay on A498, in the assay with TK-10, with MDA-MB-435, in the assay with Malme-3M, with SK-MEL-5 and in the assay with SNB-75 was > 100 µM (inactive) in each case. Also, the GI50 in the assay on SK-MEL-28 is > 100 µM (inactive); in the assay on OVCAR-3 it was > 100 µM (inactive); in the assay on SNB-19, 60.3 µM (inactive); in the assay on UACC-257, > 100 µM (inactive); with IGROV-1, > 100 µM (inactive); in the assay on M14, > 100 µM (inactive). The GI50 in the assay with HOP-92, in the assay on ACHN, in the assay on SN12C, in the assay with EKVX, with CCRF-CEM and in the assay on SK-OV-3 was > 100 µM (inactive) each time. Moreover, the GI50 in the assay with NCI-H522 and in the assay on A549 was > 100 µM (inactive) each time.
